Assay results from patent publication US20040044178A1, “Hepatotropic conjugates of antiblastic drugs accomplishing a loco-regional chemotherapy of liver micrometastases after adminstration by peripheral venous route” (priority 2001, published 2004).
Read-outs that look alike come from different tables or passages of the source.

Legend:
[1] = test system: hepatic metastases of murine colon carcinoma C-26 cells; assay: Effect of free and conjugated FUdR on liver metastases of C-26 cells in mouse; assay type: in vivo; conditions: for Increase of liver weight: saline 1.22 ± 0.25; for Total Liver DNA: saline 11.83 ± 1.75
Description: (§1) Female Balb/C mice 7-8 weeks old (weighing 16-19 g) and male Wistar rats (weighing 170-190 g) were used. They were obtained from Harlan Italy and were maintained in an animal facility at the Department of Experimental Pathology, Bologna, receiving humane care, in accordance with European Legislation. The protocols of the experiments were approved by the Ethical Committee of the University of Bologna. Animals. were fed a standard pellet diet ad lib.
Compounds were injected intravenously every other day, starting 24 h after inoculation of tumour cells. Four administrations were performed, and the animals were sacrificed one day after the injection.

[2] = test system: serum alanine aminotransferase (ALT); assay: Effect on alanine aminotransferase (ALT) serum levels in mouse; assay type: in vivo
Description: To verify whether the selective delivery of FUdR to hepatic cells accomplished by the conjugate causes liver damage, we compared the effect of free and conjugated FUdR on the serum alanine aminotransferase (ALT) (EC 2.6.1.2) level in mice (Table 3). An increase in the level of this enzyme is an index of hepatocyte damage. The drugs were administered according to the schedule used for the experiments on the growth of hepatic metastases.

[3] = [^3H]FUdR levels in inferior vena cava (IVC) and hepatic veins (HV) of rats intravenously injected with free or L-HSA conjugated [^3H]FUdR; assay type: in vivo; conditions: rat
From the text: Two radioactive conjugates were synthesised: one labelled in the carrier (L-[^14C]HSA-FUdR) and one in the drug moiety (L-HSA-[^3H]FUdR). […] The conjugateradioactive in the drug moiety (three preparations) was obtained using [^3H]FUdR (Moravek).
as §1, with “They” for “Female Balb/C mice 7-8 weeks old (weighing 16-19 g) and male Wistar rats (weighing 170-190 g) were used. They”
Plasma levels of free [^3H]FUdR were measured by using the isotope dilution procedure and HPLC. In order to identify the elution time of [^3H]FUdR in HPLC chromatogram and to evaluate the recovery, 15 μg of unlabeled FUdR was added to each plasma sample (400 μl), kept cold in ice. Plasma proteins were removed by the addition of 30 μl trichloroacetic acid 80% and centrifugation at 2-4° C. After diethylether extraction to eliminate trichloroacetic acid, […] supernatant was chromatographed on a Spherisorb ODS2 equilibrated on 20 mM sodium tetraborate pH 7.5 and eluted with a linear gradient of methanol (0-30%). Radioactivity eluting at the position of FUdR marker was counted and the plasma concentration of [^3H]FUdR was calculated taking into account the recovery of the marker (measured by UV absorbance) and the specific activity (SA) of injected [^3H]FUdR. […] When radioactivity of FUdR peak was lower than 200 dpm, the plasma concentration of [^3H]FUdR was considered below a measurable level (BML). With a 90% recovery of FUdR marker, the lowest measurable plasma concentration was about 25 ng [^3H]FUdR/ml.
These concentrations are a measure of drug levels in systemic circulation and in liver blood, respectively.

[4] = patients with colorectal cancer, intravenous continuous infusion of a therapeutic dose; cited from earlier work
[5] = Exp. 1, daily dose 5 μg/g i.v. every other day x4, NS

- concentration at 15 min ([3]; male, Wistar, plasma of hepatic vein blood, iv, i.v. 2.5 μg/g, 15 min, read-out: [^3H]FUdR level HV): 0.0576 ± 0.009 µg/mL
- concentration at 7 min ([3]; male, Wistar, plasma of hepatic vein blood, iv, i.v. 10 μg/g, 7 min, read-out: [^3H]FUdR level HV): 0.385 µg/mL
- concentration at 15 min ([3]; male, Wistar, plasma of hepatic vein blood, iv, i.v. 10 μg/g, 15 min, read-out: [^3H]FUdR level HV): 0.203 µg/mL
- concentration at 30 min ([3]; male, Wistar, plasma of hepatic vein blood, iv, i.v. 10 μg/g, 30 min, read-out: [^3H]FUdR level HV): 0.0775 ± 0.0436 µg/mL
- concentration at 15 min ([3]; male, Wistar, plasma of hepatic vein blood, iv, i.v. free 1.2 μg/g, 15 min, read-out: [^3H]FUdR level HV): 0.0409 ± 0.0077 µg/mL
- concentration at 7 min ([3]; male, Wistar, plasma of inferior vena cava blood, iv, i.v. 0.15 μg/g, 7 min, read-out: [^3H]FUdR level IVC): 0.0801 ± 0.0042 µg/mL
- concentration at 15 min ([3]; male, Wistar, plasma of inferior vena cava blood, iv, i.v. 2.5 μg/g, 15 min, read-out: [^3H]FUdR level IVC): 0.404 ± 0.0479 µg/mL
- concentration at 30 min ([3]; male, Wistar, plasma of inferior vena cava blood, iv, i.v. 2.5 μg/g, 30 min, read-out: [^3H]FUdR level IVC): 0.156 ± 0.0519 µg/mL
- concentration at 45 min ([3]; male, Wistar, plasma of inferior vena cava blood, iv, i.v. 2.5 μg/g, 45 min, read-out: [^3H]FUdR level IVC): 0.0255 ± 0.0002 µg/mL
- concentration at 7 min ([3]; male, Wistar, plasma of inferior vena cava blood, iv, i.v. 10 μg/g, 7 min, read-out: [^3H]FUdR level IVC): 1.57 µg/mL
- concentration at 15 min ([3]; male, Wistar, plasma of inferior vena cava blood, iv, i.v. 10 μg/g, 15 min, read-out: [^3H]FUdR level IVC): 1.06 µg/mL
- concentration at 30 min ([3]; male, Wistar, plasma of inferior vena cava blood, iv, i.v. 10 μg/g, 30 min, read-out: [^3H]FUdR level IVC): 0.467 ± 0.228 µg/mL
- concentration at 15 min ([3]; male, Wistar, plasma of inferior vena cava blood, iv, i.v. free 1.2 μg/g, 15 min, read-out: [^3H]FUdR level IVC): 0.2752 ± 0.0007 µg/mL
- concentration at 30 min ([3]; male, Wistar, plasma of inferior vena cava blood, iv, i.v. free 1.2 μg/g, 30 min, read-out: [^3H]FUdR level IVC): 0.0389 ± 0.0058 µg/mL
- Levels in HV / Levels in IVC ([3]; i.v. 2.5 μg/g, 15 min): 0.15 ± 0.04
- Levels in HV / Levels in IVC ([3]; i.v. 2.5 μg/g, 30 min): 0.19
- [^3H]FUdR level HV ([3]; i.v. 2.5 μg/g, 45 min): BML (Below Measurable Level (<25 ng/ml))
- Levels in HV / Levels in IVC ([3]; i.v. 10 μg/g, 7 min): 0.24
- Levels in HV / Levels in IVC ([3]; i.v. 10 μg/g, 15 min): 0.19
- Levels in HV / Levels in IVC ([3]; i.v. 10 μg/g, 30 min): 0.16 ± 0.02
- Levels in HV / Levels in IVC ([3]; i.v. free 1.2 μg/g, 15 min): 0.15 ± 0.03
- [^3H]FUdR level HV ([3]; i.v. free 1.2 μg/g, 30 min): BML (Below Measurable Level (<25 ng/ml))
- [^3H]FUdR level HV ([3]; i.v. free 1.2 μg/g, 60 min): BML (Below Measurable Level (<25 ng/ml))
- [^3H]FUdR level IVC ([3]; i.v. free 1.2 μg/g, 60 min): BML (Below Measurable Level (<25 ng/ml))
SMILES: O=c1[nH]c(=O)n([C@H]2C[C@H](O)[C@@H](CO)O2)cc1F [Free FUdR, 5-fluoro-2′-deoxyuridine]
- Increase of liver weight [1, 5]: 1.00 ± 0.17 g
- Total Liver DNA [1, 5]: 9.47 ± 1.06 mg
- Increase of liver weight ([1]; Exp. 1, daily dose 10 μg/g i.v. every other day x4, p = 0.070): 0.64 ± 0.15 g
- Total Liver DNA ([1]; Exp. 1, daily dose 10 μg/g i.v. every other day x4, p = 0.041): 7.32 ± 0.91 mg
- Daily dose that inhibited the tumour growth ([1]; i.v. every other day, four administrations): 10 µg/g
- Serum ALT levels ([2]; Exp 2, 50 μg/g, four i.v. injections on alternate days, saline 64.5 ± 15.0, p = 0.045): 114.8 ± 16.0 p = 0.045 U/I
- Effect on serum ALT level ([2]; dose 5 times higher than that active on the metastases): increase in ALT levels at the limit of statistical significance
- [^3H]FUdR level HV ([3]; i.v. 0.15 μg/g, 7 min): BML^b) (Below Measurable Level (<25 ng/ml))
- Estimated blood concentration of the drug [4]: about 0.2 ng/ml
